The EC50 is the midpoint of the concentration-response curve.

Like-named read-outs stand apart in the source and are kept apart here.

Test [1] deals with T1, human RORγ (Homo sapiens, UniProt P51449).
T1 construct: human, NM_005060.3 and from Ser253 to Lys518; expressed in transfected cells; host or cells: CHO cells (transient co-transfection with pG5-Luc reporter)
T1 sequence (P51449 253-518): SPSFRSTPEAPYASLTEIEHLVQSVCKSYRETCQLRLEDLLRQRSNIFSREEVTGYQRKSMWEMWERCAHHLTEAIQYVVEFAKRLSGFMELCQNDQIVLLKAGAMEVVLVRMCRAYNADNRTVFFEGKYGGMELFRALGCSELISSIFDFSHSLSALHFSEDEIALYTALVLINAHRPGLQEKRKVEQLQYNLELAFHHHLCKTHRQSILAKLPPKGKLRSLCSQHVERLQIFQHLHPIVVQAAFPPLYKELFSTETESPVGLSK
Nature of the test: Luciferase reporter gene assay of inhibitory effect against RORγ transcriptional activity (GAL4-hRORγ plasmid in CHO cells). The test is classed as cell-based. In general terms: Reporter assays use an easily measured gene product as a stand-in for the process of interest.

In test [2] the target is T2, mouse RORγ (Mus musculus, UniProt P51450).
T2 construct: mouse, NM_011281.2 and from Ile251 to Lys516; expressed in transfected cells; host or cells: CHO cells (transient co-transfection with pG5-Luc reporter)
T2 sequence (P51450 251-516): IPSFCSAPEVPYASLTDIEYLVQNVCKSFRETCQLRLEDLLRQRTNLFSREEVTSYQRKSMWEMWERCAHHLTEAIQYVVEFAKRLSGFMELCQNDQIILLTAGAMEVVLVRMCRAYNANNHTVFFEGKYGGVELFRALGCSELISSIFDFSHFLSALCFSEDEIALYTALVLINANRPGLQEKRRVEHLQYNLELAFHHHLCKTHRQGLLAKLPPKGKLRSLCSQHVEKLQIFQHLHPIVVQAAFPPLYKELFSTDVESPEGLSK
Nature of the test: Luciferase reporter gene assay of inhibitory effect against RORγ transcriptional activity (GAL4-mRORγ plasmid in CHO cells). The test is classed as cell-based. The method, boiled down:
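Readout is intracellular luciferase after 2-day compound exposure (8 concentrations, 0.1% DMSO) in CHO cells expressing GAL4 fused to mouse RORγ LBD residues Ile251–Lys516 plus pG5-Luc reporter. EC50 fitted from %-of-control; points showing resazurin-detected cytotoxicity dropped.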

Turning to `Cc1ccncc1NC(=O)CCc1nnc(CCC(C)C)n1C1CC1` [Example F-90], the EC50 in test [1] (read-out: LUC EC50 (μM) hRORg) and in test [2] (read-out: LUC EC50 (μM) mRORg) was over 3 µM in each case.
`COCc1ccc(C)c(NC(=O)CCc2nnc(CCC(C)C)n2C2CC2)c1` [Example F-174]: the EC50 in test [1] (read-out: LUC EC50 (μM) hRORg) and in test [2] (read-out: LUC EC50 (μM) mRORg) was over 3 µM in each case.
Consider `CC(=O)N1C[C@H](C(=O)Nc2ccc(C)cc2C)[C@@H](c2nnc([C@H]3C[C@H](c4ccccc4)C3)n2C2CC2)C1` (racemic) [Example F-345], for which the EC50 in test [1] (read-out: LUC EC50 (μM) hRORg) and in test [2] (read-out: LUC EC50 (μM) mRORg) was under 3 µM each time.
For the molecule `CC1(Cc2cc(-c3onc([C@@H](CCC(=O)O)CC(=O)Nc4ccc(F)cc4Cl)c3C3CC3)no2)CC1` [Example E-63], the EC50 in test [1] (read-out: LUC EC50 (μM) hRORg) and in test [2] (read-out: LUC EC50 (μM) mRORg) was under 3 µM throughout.
In the case of `Cc1ccc(NC(=O)C[C@H](CC(N)=O)c2noc([C@H]3C[C@@H](CC(C)C)C3)c2C2CC2)c(C)c1` [Example F-642], the EC50 in test [1] (read-out: LUC EC50 hRORg) and in test [2] (read-out: LUC EC50 mRORg) was under 3 µM each time.
Consider `CC(=O)N1C[C@H](C(=O)Nc2ccc(C)cc2C)[C@@H](c2nnc(-c3ccc(CC(C)C)cc3)n2C2CC2)C1` [Example F-406], for which the EC50 in test [1] (read-out: LUC EC50 (μM) hRORg) and in test [2] (read-out: LUC EC50 (μM) mRORg) was under 3 µM each time.
`Cc1ccc(CNC(=O)CCc2nnc(CCC(C)C)n2C2CC2)cc1` [Example F-61]: the EC50 in test [1] (read-out: LUC EC50 (μM) hRORg) and in test [2] (read-out: LUC EC50 (μM) mRORg) was over 3 µM in each case.
For the molecule `COc1cc(C)ccc1CNC(=O)[C@H]1CN(C(C)=O)C[C@@H]1c1nnc(CCCC(C)C)n1C1CC1` (racemic) [Example F-279], the EC50 in test [1] (read-out: LUC EC50 (μM) hRORg) and in test [2] (read-out: LUC EC50 (μM) mRORg) was under 3 µM in each case.
`Cc1ccc(NC(=O)[C@H]2CCC(=O)N(C)[C@@H]2c2nnc(CCCC(C)(C)C)n2C2CC2)c(C)c1` [Example F-322]: the EC50 in test [1] (read-out: LUC EC50 (μM) hRORg) and in test [2] (read-out: LUC EC50 (μM) mRORg) was under 3 µM in each case.
As to `CCn1c(CCC(=O)Nc2ccc(C)cc2C)nnc1CCC1CCCCC1` [Example F-40], the EC50 in test [1] (read-out: LUC EC50 (μM) hRORg) and in test [2] (read-out: LUC EC50 (μM) mRORg) was under 3 µM each time.
On to `Cc1c(Cl)cccc1NC(=O)CCc1nnc(COCc2ccccc2)n1C1CC1` [Example F-166], for which the values for the EC50 in test [1] (read-out: LUC EC50 (μM) hRORg) and in test [2] (read-out: LUC EC50 (μM) mRORg) were over 3 µM and under 3 µM, respectively.
With `Cc1ccc(NC(=O)C(CC(=O)O)Cc2noc([C@H]3C[C@@H](CC(C)C)C3)c2C2CC2)c(C)c1` (stereo partly drawn) [Example F-666], the values for the EC50 in test [1] (read-out: LUC EC50 hRORg) and in test [2] (read-out: LUC EC50 mRORg) were over 3 µM and under 3 µM, respectively.
For the molecule `CC1(c2cc(-c3onc([C@@H](CCC(=O)O)CC(=O)Nc4ccc(Cl)cc4F)c3C3CC3)no2)CCCC1` [Example E-71], the EC50 in test [1] (read-out: LUC EC50 (μM) hRORg) and in test [2] (read-out: LUC EC50 (μM) mRORg) was under 3 µM each time.
Turning to `COc1cc(C)ccc1CNC(=O)C[C@H](NC(C)=O)c1nnc(CCCC(C)C)n1C1CC1` [Example F-312], the half-maximal effective concentration (EC50) in test [1] (read-out: LUC EC50 (μM) hRORg) and in test [2] (read-out: LUC EC50 (μM) mRORg) was over 3 µM in each case.
Turning to `Cc1ccc(NC(=O)C[C@H](CCC(=O)O)c2noc(-c3cc(C(F)(F)CC(C)(C)C)on3)c2C2CC2)c(Cl)c1` [Example E-35], the 50% effective concentration (EC50) in test [1] (read-out: LUC EC50 (μM) hRORg) and in test [2] (read-out: LUC EC50 (μM) mRORg) was under 3 µM in each case.
In the case of `Cc1cccc(NC(=O)CCc2nnc(CCC(C)C)n2C2CC2)c1` [Example F-65], the half-maximal effective concentration (EC50) in test [1] (read-out: LUC EC50 (μM) hRORg) and in test [2] (read-out: LUC EC50 (μM) mRORg) was over 3 µM in each case.
In the case of `CC1(c2cc(-c3onc([C@@H](CCC(=O)O)CC(=O)Nc4ccc(F)cc4Cl)c3C3CC3)no2)CCCC1` [Example E-72], the EC50 in test [1] (read-out: LUC EC50 (μM) hRORg) and in test [2] (read-out: LUC EC50 (μM) mRORg) was under 3 µM each time.
Consider `Cc1ccc(NC(=O)C[C@H](CCC(=O)O)c2noc3c2C(C)CCC3CCC(C)C)c(Cl)c1` (single isomer, unassigned) [Example F-690], for which the EC50 in test [1] (read-out: LUC EC50 hRORg) was over 3 µM; in test [2] (read-out: LUC EC50 mRORg), under 3 µM.
Turning to `CC(=O)N1C[C@H](C(=O)Nc2ccc(C)cc2C)[C@@H](c2nnc(C(O)CCC(C)(C)C)n2C2CC2)C1` (single isomer, unassigned) [Example F-348], the EC50 in test [1] (read-out: LUC EC50 (μM) hRORg) and in test [2] (read-out: LUC EC50 (μM) mRORg) was over 3 µM throughout.
`CCn1c(CCC(=O)Nc2cc(C)cc(C)c2)nnc1CCC(C)C` [Example F-50]: the EC50 in test [1] (read-out: LUC EC50 (μM) hRORg) and in test [2] (read-out: LUC EC50 (μM) mRORg) was over 3 µM in each case.
Take `CC(=O)N1C[C@H](C(=O)Nc2ccc(Cl)cc2C)[C@@H](c2nnc(C3CC4(CCC(F)(F)CC4)C3)n2C2CC2)C1` [Example F-610]: the EC50 in test [1] (read-out: LUC EC50 hRORg) and in test [2] (read-out: LUC EC50 mRORg) was under 3 µM throughout.
As to `Cc1ccc(NC(=O)C[C@H](CCC(=O)O)c2noc(-c3cc(C(F)(F)CC(C)C)on3)c2C2CC2)c(Cl)c1` [Example E-33], the EC50 in test [1] (read-out: LUC EC50 (μM) hRORg) and in test [2] (read-out: LUC EC50 (μM) mRORg) was under 3 µM each time.
Consider `Cc1ccc(NC(=O)C[C@H](CCC(=O)O)c2noc(-c3cc(CCC(C)(C)C)on3)c2C2CC2)c(Cl)c1` [Example E-22], for which the EC50 in test [1] (read-out: LUC EC50 (μM) hRORg) and in test [2] (read-out: LUC EC50 (μM) mRORg) was under 3 µM throughout.
On to `Cc1ccc(NC(=O)CCc2noc([C@H]3C[C@@H](CC(C)(C)C)C3)c2C2CC2)c(C)c1` [Example F-721], for which the concentration for a half-maximal effect (EC50) in test [1] (read-out: LUC EC50 hRORg) and in test [2] (read-out: LUC EC50 mRORg) was under 3 µM throughout.
Consider `Cc1cc(F)ccc1NC(=O)C[C@H](CCO)c1nnc([C@H]2C[C@@H](CC(C)C)C2)n1C1CC1` [Example F-594], for which the EC50 in test [1] (read-out: LUC EC50 hRORg) and in test [2] (read-out: LUC EC50 mRORg) was under 3 µM each time.
On to `Cc1ccc(NC(=O)CCc2nnc(CCC(C)(C)C)n2C2CC2)c(C)c1` [Example F-69], for which the EC50 in test [1] (read-out: LUC EC50 (μM) hRORg) is over 3 µM; in test [2] (read-out: LUC EC50 (μM) mRORg) it was under 3 µM.
For `Cc1ccc(NC(=O)C[C@H](CCC(=O)O)c2noc(-c3cc(CC(C)C)no3)c2C2CC2)c(Cl)c1` [Example E-04, (S)-5-(2-chloro-4-methyl-phenylcarbamoyl)-4-(4-cyclopropyl-3′-isobutyl-[5,5′]biisoxazolyl-3-yl)-pentanoic acid], in that order: under 3 µM and under 3 µM.
Taken in the same sequence, the figures for `Cc1ccc(NC(=O)CC(CN(C)C)c2nnc(CCCC(C)C)n2C2CC2)c(C)c1` (racemic) [Example F-278] were over 3 µM and under 3 µM.
`Cc1ccc(NC(=O)CCc2nnc([C@H]3C[C@H](CC(C)C)C3)n2C2CC2)c(C)c1` [Example F-357]: the EC50 in test [1] (read-out: LUC EC50 (μM) hRORg) and in test [2] (read-out: LUC EC50 (μM) mRORg) was under 3 µM each time.
Regarding `Cc1ccc(NC(=O)[C@H]2CN(C(=O)CN(C)C)C[C@@H]2c2nnc([C@H]3C[C@@H](CC(C)(C)C)C3)n2C2CC2)c(C)c1` [Example F-648], the EC50 in test [1] (read-out: LUC EC50 hRORg) and in test [2] (read-out: LUC EC50 mRORg) was under 3 µM throughout.
For the molecule `CNC(=O)CO[C@@H](CC(=O)Nc1ccc(C)cc1C)c1nnc([C@H]2C[C@@H](CC(C)C)C2)n1C1CC1` [Example F-480], the 50% effective concentration (EC50) in test [1] (read-out: LUC EC50 (μM) hRORg) and in test [2] (read-out: LUC EC50 (μM) mRORg) was under 3 µM in each case.
Consider `CC(=O)N1C[C@H](C(=O)Nc2ccc(C)cc2C)[C@@H](c2nnc(CCCC(C)(C)C)n2C2CC2)C1` (racemic) [Example F-219], for which the EC50 in test [1] (read-out: LUC EC50 (μM) hRORg) and in test [2] (read-out: LUC EC50 (μM) mRORg) was under 3 µM each time.
`CC(=O)N1C[C@H](C(=O)Nc2ccc(C)cc2C)[C@@H](c2nnc([C@H]3C[C@@H](c4ccccc4)C3)n2C2CC2)C1` (racemic) [Example F-346]: the EC50 in test [1] (read-out: LUC EC50 (μM) hRORg) and in test [2] (read-out: LUC EC50 (μM) mRORg) was under 3 µM each time.
As for `Cc1ccc(NC(=O)CC(CCCN(C)C)c2nnc(CCCC(C)C)n2C2CC2)c(C)c1` (racemic) [Example F-288], the EC50 in test [1] (read-out: LUC EC50 (μM) hRORg) and in test [2] (read-out: LUC EC50 (μM) mRORg) was over 3 µM each time.
In the case of `C=CCC(CC(=O)Nc1ccc(C)cc1C)c1nnc(CCCC(C)(C)C)n1CC(F)(F)F` (racemic) [Example F-373], the EC50 in test [1] (read-out: LUC EC50 (μM) hRORg) and in test [2] (read-out: LUC EC50 (μM) mRORg) was under 3 µM each time.
For the molecule `Cc1cc(C#N)ccc1NC(=O)CCc1nnc(CCC(C)C)n1C1CC1` [Example F-161], the EC50 in test [1] (read-out: LUC EC50 (μM) hRORg) and in test [2] (read-out: LUC EC50 (μM) mRORg) was over 3 µM in each case.

These data come from US20160137639A1, “TRIAZOLE-ISOXAZOLE COMPOUND AND MEDICAL USE THEREOF” (JAPAN TOBACCO INC., priority 2012, published 2016).
